The source of these data is patent US4267312A, “Anthracycline derivatives and process for preparing the same” (Sanraku-Ocean Co., Ltd., priority 1978, dated 1981).

≈ marks a conversion by molar mass, not a printed value.

In general, inhibition refers to the change of the read-out against control, counted positive when it falls.

The test system of one data set is Sal. typhimurium. The data set can be described thus: mutagenicity by the Ames' test.
Data set [1] relates to biosynthesis of DNA in L1210 cells. The data set can be described thus: DNA biosynthesis in L1210 cells (incorporation of 14C-thymidine into acid-insoluble materials). It is filed as cell-based, murine. The note with it: Mus musculus, L1210, 1 h; 60 min, 37° C., 14C-thymidine 0.05 μCi/ml; read-out: IC50 of the incorporation of radioactivity into acid-insoluble materials, 14C-thymidine. The method, then: (§1) (2) L1210 cells were inoculated at 5×10^5 cells/ml into a RPMI 1640 medium containing 10% calf serum and cultivated at 37° C. for 1 to 2 hours in a CO2 incubator. The compound in the present invention at various concentrations and ^14 C-thymidine (0.05 μCi/ml) or ^14 C-uridine (0.05 μCi/ml) were added and incubated at 37° C. for 60 min. After stopping the pulse-labeling by addition of 10% trichloroacetic acid (TCA) to the reaction mixture, acid-insoluble materials were precipitated, washed 3 times with 5 to 10% TCA, and dissolved in a small amount of formic acid, and then the radioactivity of the solution was determined. Effects on the biosynthesis of DNA and RNA were shown by the 50% inhibition concentration (IC50) of the incorporation of radioactivity into acid-insoluble materials.

The nature of a further data set: toxicity in mice. It is filed as in vivo. As to conditions: in words. The method, then: (§2) For example, BDF1 mice were inoculated intraperitoneally with 1×10^6 cells/mouse. 24 hours after inoculation, the compound was intraperitoneally injected once daily for 10 days consecutively. […] At the dose of 10 mg/kg/day weight loss was observed, but general toxicity was less than daunomycin.

Another data set relates to leukemic L1210. The data set can be described thus: antitumor activity in leukemic L1210-bearing mice. The note with it: in words. It is filed as in vivo, BDF1 mice. Here is the method:
as §2

Data set [2] deals with murine leukemic L1210 cells. The data set can be described thus: growth inhibition of murine leukemic L1210 cells in culture. It is filed as cell-based. The note with it: Mus musculus, RPMI 1640, 20% calf serum, 37° C., read-out: inhibition of control growth; for inhibition at 0.5 µg/mL: 0.5 μg/ml. Here is the method: For example, L1210 cells were inoculated into a RPMI 1640 medium (Nissui, Rosewell Park Memorial Institute 1640) containing 20% calf serum at the cell density of 5×10^4 cells/ml and the compound in the present invention was simultaneously added to the medium at the concentration of 0.1 and 0.5 μg/ml and cultivated at 37° C. in a CO2 incubator.

For data set [3], the system named is biosynthesis of RNA in L1210 cells. The data set can be described thus: RNA biosynthesis in L1210 cells (incorporation of 14C-uridine into acid-insoluble materials). It is filed as cell-based, murine. As to conditions: Mus musculus, L1210, 1 h; 60 min, 37° C., 14C-uridine 0.05 μCi/ml; read-out: IC50 of the incorporation of radioactivity into acid-insoluble materials, 14C-uridine. Here is the method:
as §1

Consider `COc1ccc(O)c2c1C(=O)c1c(O)c3c(c(O)c1C2=O)C[C@@](O)(C(C)O)C[C@@H]3O[C@H]1C[C@H](N)[C@H](O)[C@H](C)O1` (stereo partly shown) [1-hydroxy-13-dihydrodaunomycin], for which the “mutagenicity relative to daunomycin” value with Sal. typhimurium is on record as “decrease about a half of daunomycin”. Moreover, the results for the IC50 in data set [1] and in data set [3] were 3.8 µg/mL (≈ 6.97 µM) and 1.8 µg/mL (≈ 3.3 µM), respectively. The “toxicity in mice compared with daunomycin” value in the data set “toxicity in mice” is reported as “lower toxicity than daunomycin”. In the data set with leukemic L1210, the “antitumor activity in leukemic L1210-bearing mice” value is listed as “marked antitumor activity”. Besides, the inhibition at 0.1 µg/mL in data set [2] (0.1 μg/ml) worked out at 10.8%. In data set [2], the inhibition at 0.5 µg/mL was 52.2%.
As for `COc1ccc(O)c2c1C(=O)c1c(O)c3c(c(O)c1C2=O)C[C@@](O)(C(C)O)C[C@@H]3O[C@H]1C[C@H](NC=O)[C@H](O)[C@H](C)O1` (stereo partly shown) [N-formyl-1-hydroxy-13-dihydrodaunomycin], the “mutagenicity relative to daunomycin” value with Sal. typhimurium is recorded as “decrease about a half of daunomycin”. The IC50 in data set [1] and in data set [3] was more than 2.5 µg/mL each time. Besides, in the data set “toxicity in mice”, the “toxicity in mice compared with daunomycin” value is given as “lower toxicity than daunomycin”. In addition, in the data set with leukemic L1210, the “antitumor activity in leukemic L1210-bearing mice” value is “marked antitumor activity”. In addition, in data set [2], the inhibition at 0.5 µg/mL was 16%.
